US12569472B2, “PPARγ agonists for treatment of kidney disease” (The Research Institute at Nationwide Children's Hospital, priority 2020, dated 2026)
“And” between values parts separate entries of the source, which are not always exact repeats. Identical values can stand only once.

How the values were obtained:
[1] = system: PAN-induced nephropathy in male Wistar rats; experiment: PAN-induced nephropathy rat model: proteinuria (urine protein:creatinine ratio); assay type: in vivo; conditions: Day 11, Pio 10 mg/kg or GQ-16 40 mg/kg daily oral gavage; for Urinary protein/creatinine ratio (UPCr): PAN 50 mg/kg IV
Description: (§1) This study was approved by the Institution Animal Care and Use Committee at Nationwide Children's Hospital, and their guidelines were followed when performing the experiments. Male Wistar rats were intravenously (IV) injected with puromycin aminonucleoside (PAN) (Sigma-Aldrich, St. Louis, Mo.) (50 mg/kg) on Day 0, which induced proteinuria, while control rats were given IV injections of saline. The rats were treated by oral gavage with Pioglitazone (Alfa Aesar, Tewksbury, Mass.) (10 mg/kg), GQ-16 (40 mg/kg), or a sham vehicle daily. GQ-16 and Pio dosages were determined based on previous studies, and GQ-16 was synthesized as previously described. Amato et al., The Journal of biological chemistry, 287: 28169-28179 (2012). Spot urine and serum were collected, and body weights were recorded throughout the study. […] Kerlin et al., Journal of the American Society of Nephrology: JASN, 26: 3009-3019 (2015). Kidneys were harvested, and the glomeruli were isolated using the sequential sieving method. Agrawal et al., Sci Rep, 6: 24392 (2016). Liver and white adipose tissue (WAT) epididymal fat were collected and flash frozen in liquid nitrogen.
Urine was collected from rats daily throughout the study and resolved using sodium dodecyl sulfate-polyacrylamide gel electrophoresis (SDS-PAGE) on an 8% gel and stained with Coomassie Brilliant Blue G-250 (Alfa Aesar, Tewksbury, MA) to visualize the albumin bands. Urine protein:creatinine ratio (UPCr) analyses were performed on urine samples from Day 11 at the time of peak proteinuria by Antech Diagnostics GLP (Morrisville, N.C.) to quantify the proteinuria values.

diabetic mice = conditions: in the absence of weight gain and edema; cited from earlier work
[2] = system: white adipose tissue gene expression (Ap2, Adipoq, Adipsin, Cd36, Pgc1a, Pparg); experiment: White adipose tissue (epididymal fat) gene expression by qRT-PCR; assay type: in vivo, rat; conditions: PAN rats
Description: as §1
(§2) Total RNA was extracted from isolated WAT epididymal fat and liver tissue samples using the RNeasy kit (Qiagen, Germantown, MD), following the manufacturer's instructions. Tissue samples in lysis buffer were placed in lock tubes with stainless-steel disruption beads and lysed at 30.0 Hz for 4 minutes using the Qiagen TissueLyser (Germantown, MD), followed by RNA isolation from the resulting lysate. Total RNA was isolated from glomeruli tissue samples using the mirVana™ Isolation Kit (Invitrogen, Carlsbad, CA), according to the manufacturer's instructions. Yield and purity were calculated for all isolated RNA samples by measuring the absorbance at 260, 280, and 230 nm and the ratios (both) with a spectrophotometer. 500 ng-1 μg of RNA was subjected to DNase (Invitrogen, Carlsbad, CA) digestion at room temperature for 15 minutes, which was then inactivated with 25 mM EDTA at 65° C. for 10 min. RNA was reverse transcribed using the iScript cDNA Synthesis Kit (Bio-Rad, Hercules, CA) according to the manufacturer's instructions. cDNA was used for quantitative reverse transcription-polymerase chain reaction (qRT-PCR) using gene specific and house-keeping primers. SYBR green (Bio-Rad, Hercules, Calif.) qRT-PCR was performed on the Applied Biosystems 7500 Real-Time PCR System. The PCR conditions were 95° C. for 10 minutes, 40× (95° C. for 15 seconds, 60° C. for 1 minute), followed by a melt curve to ensure specific products. The annealing temperature was at 60° C. for all genes except Pgc1a, Pparg, and Cd36 for which 52° C. annealing temperature was used. The melt curve conditions were 95° C. for 15 seconds, 60° C. for 1 minute, 30 seconds incremental increase to 95° C. and 60° C. for 15 seconds. The ΔΔCt method was used to analyze the results, including normalization to housekeeping genes (Rpl6 44 for glomeruli, Ppia 45, 46 for fat and liver). Pfaffl, M W, Nucleic acids research, 29: e45, 2001. Due to melt curve variation for Trpc6, amplified samples were also resolved on a 2% agarose gel, and densitometry was performed using ImageJ (National Institutes of Health, Bethesda, MD) software. Each gene was tested in triplicates for each tissue on at least three different rats per group.

[3] = system: glomerular gene expression (Nphs1, Nrf2, Trpc6, Pparg); experiment: Glomerular gene expression by qRT-PCR; assay type: in vivo, rat; conditions: PAN rats
Description: as §1
as §2, with “The melt curve conditions were 95° C. for 15 seconds, 60° C. for 1 minute, 30 seconds incremental increase to 95° C. and 60° C. for 15 seconds. The ΔΔCt method was used to analyze the results, including normalization to housekeeping genes (Rpl6 44 for glomeruli, Ppia 45, 46 for fat and liver). Pfaffl, M W, Nucleic acids research, 29: e45, 2001. Due to melt curve variation for Trpc6, amplified samples were also resolved on a 2% agarose gel, and densitometry was performed using ImageJ (National Institutes of Health, Bethesda, MD) software. Each gene was tested in triplicates for each tissue on at least three different rats per group.” left out

[4] = biological target: T1, PPARγ phosphorylation at Ser273 (Homo sapiens, UniProt P37231); conditions: in vitro assay; cited from earlier work
T1 sequence (P37231 1-505): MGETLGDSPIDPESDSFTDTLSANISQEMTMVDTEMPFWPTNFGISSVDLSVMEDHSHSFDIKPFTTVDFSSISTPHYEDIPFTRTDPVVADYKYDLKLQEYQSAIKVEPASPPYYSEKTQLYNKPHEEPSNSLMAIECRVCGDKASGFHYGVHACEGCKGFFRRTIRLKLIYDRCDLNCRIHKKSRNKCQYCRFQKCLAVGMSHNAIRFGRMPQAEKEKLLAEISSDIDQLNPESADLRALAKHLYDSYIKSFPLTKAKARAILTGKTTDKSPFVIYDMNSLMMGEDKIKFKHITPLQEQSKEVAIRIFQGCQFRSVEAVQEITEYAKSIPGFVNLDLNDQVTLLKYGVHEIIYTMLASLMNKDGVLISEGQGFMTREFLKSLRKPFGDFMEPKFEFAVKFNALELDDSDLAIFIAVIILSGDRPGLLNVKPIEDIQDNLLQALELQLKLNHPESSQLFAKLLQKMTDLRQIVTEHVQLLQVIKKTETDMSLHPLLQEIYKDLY

thrombin generation [5] = experiment: Thrombin generation assay (TGA) on platelet poor plasma of rats; assay type: in vivo, rat; conditions: PAN rats, plasma Day 11; for ETP (endogenous thrombin potential): Pio 10 mg/kg or GQ-16 40 mg/kg daily
Description: as §1
Thrombin generation assays (TGA) were performed using the Technothrombin® TGA Kit (Technoclone, Vienna, Austria) and Reagent C (RC) Low on PPP samples collected from the rats to determine various parameters such as the endogenous thrombin potential (ETP) and peak thrombin concentration. These assays were performed at least in duplicate on various rat groups (n=4-7/group). Briefly, PPP at 1:1 ratio with buffer was added to black well plates, and RC Low added. Then TGA substrate was added just before reading on a Spectramax M2 Fluorescent Plate Reader (Molecular Devices, San Jose, CA).

P-PPARγ (Ser273) = biological target: T2, P-PPARγ (Ser273) (Rattus norvegicus, UniProt O88275); experiment: Western blot of glomerular P-PPARγ (Ser273) / total PPARγ; assay type: in vivo; conditions: PAN-nephrotic rats
T2 construct: To isolate protein from the glomeruli, liver, and fat tissues, the samples were lysed; from tissue; host or cells: glomeruli isolated from kidneys of male Wistar rats
T2 sequence (O88275 1-505): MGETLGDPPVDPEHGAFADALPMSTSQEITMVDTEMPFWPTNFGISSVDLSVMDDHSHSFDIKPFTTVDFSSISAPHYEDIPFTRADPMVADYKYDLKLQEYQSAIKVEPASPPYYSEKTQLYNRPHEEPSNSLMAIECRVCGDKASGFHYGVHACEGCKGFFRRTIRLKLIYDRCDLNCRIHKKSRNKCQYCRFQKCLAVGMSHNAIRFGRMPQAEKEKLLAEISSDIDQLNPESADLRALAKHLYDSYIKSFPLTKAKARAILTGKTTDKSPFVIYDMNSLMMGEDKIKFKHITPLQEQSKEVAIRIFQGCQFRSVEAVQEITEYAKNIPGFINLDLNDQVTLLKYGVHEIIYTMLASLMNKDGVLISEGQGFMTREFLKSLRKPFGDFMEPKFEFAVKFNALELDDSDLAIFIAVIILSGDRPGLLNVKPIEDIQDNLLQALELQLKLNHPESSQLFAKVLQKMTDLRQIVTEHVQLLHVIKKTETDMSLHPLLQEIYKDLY
Description: Male Wistar rats were intravenously (IV) injected with puromycin aminonucleoside (PAN) (Sigma-Aldrich, St. Louis, Mo.) (50 mg/kg) on Day 0, which induced proteinuria, while control rats were given IV injections of saline. The rats were treated by oral gavage with Pioglitazone (Alfa Aesar, Tewksbury, Mass.) (10 mg/kg), GQ-16 (40 mg/kg), or a sham vehicle daily. […] Spot urine and serum were collected, and body weights were recorded throughout the study. […] Kidneys were harvested, and the glomeruli were isolated using the sequential sieving method.
To isolate protein from the glomeruli, liver, and fat tissues, the samples were lysed in a lock tube with RIPA buffer (1M Tris HCl, 0.5M EDTA, 5M NaCl, 10% SDS) containing protease inhibitor cocktail (Thermo Scientific, Waltham, MA) and phosphatase inhibitor cocktail (Alfa Aesar, Tewksbury, MA) and a stainless-steel disruption bead using a Qiagen TissueLyser (Germantown, Md.). Following lysis/homogenization at 30.0 Hz for 4 minutes (liver and fat) or 1 minute (glomeruli), samples were centrifuged for 10 minutes at 4° C. at 12,000 rpm. The supernatant was collected, and the proteins were resolved by SDS-PAGE and transferred to an Immobilon-P polyvinylidene difluoride (PVDF) Transfer Membrane (Millipore Sigma, St. Louis, MO). […] Protein bands were detected by chemiluminescence using the Chemidoc MP Imaging System (Bio-Rad, Hercules, CA). […]

[6] = system: PAN-induced nephropathy in male Wistar rats; experiment: Serum chemistry (albumin, cholesterol) in PAN-nephrotic rats; assay type: in vivo, rat; conditions: for mean reduction of PAN-induced hypercholesterolemia / serum total cholesterol: Day 11; for serum albumin: Day 11, Pio 10 mg/kg or GQ-16 40 mg/kg daily
Description: as §1
Serum albumin and cholesterol were measured using the ACE® albumin and cholesterol reagents (Alfa Wasserman Diagnostic Technologies, LLC, West Caldwell, NJ) on the Vet Axcel (Alfa Wasserman Diagnostic Technologies, LLC, West Caldwell, NJ) at the Clinical Pathology Services, The Ohio State University's College of Veterinary Medicine, according to the manufacturer's instructions.

[7] = Body weight in PAN-nephrotic rats; assay type: in vivo, rat
Description: as §1

[8] = system: hepatic gene expression (Pcsk9, Abca1, F2, SerpinC1); experiment: Hepatic gene expression by qRT-PCR; assay type: in vivo, rat
Description: as §1
as §2, with “The melt curve conditions were 95° C. for 15 seconds, 60° C. for 1 minute, 30 seconds incremental increase to 95° C. and 60° C. for 15 seconds. The ΔΔCt method was used to analyze the results, including normalization to housekeeping genes (Rpl6 44 for glomeruli, Ppia 45, 46 for fat and liver). Pfaffl, M W, Nucleic acids research, 29: e45, 2001. Due to melt curve variation for Trpc6, amplified samples were also resolved on a 2% agarose gel, and densitometry was performed using ImageJ (National Institutes of Health, Bethesda, MD) software. Each gene was tested in triplicates for each tissue on at least three different rats per group.” left out

PPARγ = biological target: T3, PPARγ (Homo sapiens, UniProt P37231); conditions: cited from earlier work
T3 sequence (P37231 1-505): T1 sequence (P37231 1-505)

[9] = in vivo; cited from earlier work
thrombin generation [10] = conditions: previous study; cited from earlier work

SMILES | Urinary protein/creatinine ratio (UPCr) [1] | mean reduction in PAN-induced proteinuria [1] | WAT Ap2 (Fabp4) expression [2] | Lag Phase (thrombin generation [5]) | Peak Thrombin (thrombin generation [5]) | Velocity Index (thrombin generation [5]) | ETP (endogenous thrombin potential) (thrombin generation [5]) | mean reduction of PAN-induced hypercholesterolemia [6] | serum total cholesterol [6] | serum albumin [6] | body weight (weight reduction of nephrotic rats) [7] | other results
COc1ccc(Br)cc1/C=C1\SC(=O)N(Cc2ccc(C)cc2)C1=O [GQ-16, 5-(5-bromo-2-methoxy-benzylidine)-3-(4-methyl-benzyl)-thiazolidine-2,4-dione] | 8.01 ± 3.54 mg/mg | 84% and 81% | ~2.2 fold | 9.250 ± 1.532 min | 134.0 ± 35.54 nM | 19.91 ± 6.643 nM/min | 2544 ± 489.0 nM·min | 86% | 93.14 ± 13.36 mg/dL | 2.64 ± 0.15 g/dL | maintained | insulin sensitivity (diabetic mice): improve; WAT Adipoq expression [2]: induced more robustly; WAT Adipsin (Cfd) expression [2]: induced more robustly; WAT Cd36 expression [2]: no significant differences; WAT Pgc1a expression [2]: trend in increase; WAT Pparg expression [2]: induced; WAT Δ exon 5 splice variant of Pparg, normalized to total Pparg [2]: further reduced; glomerular Nphs1 expression ([3]; vs PAN): significantly restored; glomerular Nrf2 expression ([3]; vs PAN): marked restoration; glomerular Pparg expression ([3]; not significant (p=0.06)): somewhat increased; glomerular Trpc6 expression ([3]; trend only): reduction; receptor phosphorylation at Ser273 [4]: block; phosphorylation status of PPARγ at Ser273 (glomeruli) (P-PPARγ (Ser273)): unaltered; hepatic Pcsk9 expression ([8]; PAN rats (PAN ~30 fold up)): restored to control levels; hepatic F2 expression ([8]; PAN rats, tendency, p=0.07): reduced; hepatic SerpinC1 expression ([8]; PAN rats, tendency, p=0.07): reduced; hepatic Abca1 expression ([8]; PAN rats, trend, p=0.057): ~23 fold; Ki (PPARγ): 160 nM
CCc1ccc(CCOc2ccc(CC3SC(=O)NC3=O)cc2)nc1 (stereo not shown) [Pio, pioglitazone, reference compound] | 13.17 ± 5.51 mg/mg | 64% | ~3.4 fold | 7.714 ± 0.6974 min | 180.8 ± 29.50 nM | 34.67 ± 8.448 nM/min | 3509 ± 427.8 nM·min | 80% | 97.86 ± 12.37 mg/dL | 2.34 ± 0.14 g/dL | did not show any significant difference from control rats | half-life [9]: 8 to 9 h; time of peak (systemic) [9]: 1.5 to 2 h; ETP in healthy control rats (thrombin generation [10]): significantly increased
